This note sets out measurements from ChEMBL document CHEMBL3997799, “Synthesis and anti-proliferative activity evaluation of novel benzo[d][1,3] dioxoles-fused 1,4-thiazepines” (Eur J Med Chem, 2017).

One assay relates to ECa-109 cell line. Put plainly: Antiproliferative activity against human ECA109 cells after 48 hrs by MTT assay. In kind it is functional, cell-based. As to conditions: ECa-109, 48 h. (In general: Formazan colour is commonly taken as a measure of viable cells.)
Assay [1] relates to EC9706. Put plainly: Antiproliferative activity against human EC9706 cells after 48 hrs by MTT assay. The class given is functional, cell-based. The following applies: EC9706, 48 h.
Assay [2] concerns EC9706. Put plainly: Potency index, ratio of 5-fluorouracil IC50 to test compound IC50 for human EC9706 cells. In kind it is functional.
Assay [3] in a line: Potency index, ratio of 5-fluorouracil IC50 to test compound IC50 for human ECA109 cells. The class given is functional.

Molecules are shown by their SMILES.

One may read the IC50 as the concentration at which inhibition is half-maximal. High values mean a need for much substance, low ones inhibition by little substance.

Consider `COc1cc(C2SCC(=O)Nc3cc4c(cc32)OCO4)cc(OC)c1OC` (stereo not given), for which the IC50 was found to be 130 µM in the assay on ECa-109 cell line and 70.9 µM in the assay with EC9706 [1].
For `CC1SC(c2ccc([N+](=O)[O-])cc2)c2cc3c(cc2NC1=O)OCO3` (stereo not given), in that order: 50.4 µM and 34.7 µM.
Take `O=C1CSC(c2ccco2)c2cc3c(cc2N1)OCO3` (stereo not given): the IC50 with ECa-109 cell line worked out at 42 µM; with EC9706 [1], 30.3 µM.
For `CC1SC(c2cccc([N+](=O)[O-])c2)c2cc3c(cc2NC1=O)OCO3` (stereo not given), in that order: 106 µM and 88.4 µM.
For the compound `O=C1CSC(c2ccccc2)c2cc3c(cc2N1)OCO3` (stereo not given), the IC50 worked out at 38.7 µM with ECa-109 cell line and 43.2 µM in the assay on EC9706 [1].
For `COc1cccc(C2SCC(=O)Nc3cc4c(cc32)OCO4)c1` (stereo not given), in that order: 49.6 µM and 54.6 µM.
`COc1cc(OC)cc(C2SCC(=O)Nc3cc4c(cc32)OCO4)c1` (stereo not given): the figures for the IC50 with ECa-109 cell line and in the assay on EC9706 [1] were 30.3 µM and 11.7 µM, respectively.
For `CC1SC(c2ccc(Cl)cc2)c2cc3c(cc2NC1=O)OCO3` (stereo not given), in that order: above 200 µM and above 200 µM.
For `O=C1CSC(c2cccc([N+](=O)[O-])c2)c2cc3c(cc2N1)OCO3` (stereo not given), in that order: above 200 µM and above 200 µM.
In the case of `COc1ccc(C2SCC(=O)Nc3cc4c(cc32)OCO4)cc1` (stereo not given), the values for the IC50 in the assay on ECa-109 cell line and in the assay with EC9706 [1] were 33 µM and 16.4 µM, respectively.
For `O=C1CSC(c2ccc(F)cc2)c2cc3c(cc2N1)OCO3` (stereo not given), in that order: above 200 µM and 106 µM.
For `O=C1CSC(c2cccs2)c2cc3c(cc2N1)OCO3` (stereo not given), in that order: 95.5 µM and 69.6 µM.
Turning to `Cc1ccccc1C1SCC(=O)Nc2cc3c(cc21)OCO3` (stereo not given), the IC50 with ECa-109 cell line worked out at 55.5 µM; with EC9706 [1] it was 33.5 µM.
As for `COc1ccc(C2SCC(=O)Nc3cc4c(cc32)OCO4)cc1Br` (stereo not given), the “Ratio IC50” value (in the assay on EC9706 [2]; in assay [3]) was 2 - 3 in each case. In addition, the IC50 came to 16.2 µM in the assay with ECa-109 cell line and 8.23 µM in the assay with EC9706 [1].
Take `Cc1ccc(C2SCC(=O)Nc3cc4c(cc32)OCO4)cc1` (stereo not given): the IC50 with ECa-109 cell line was 27.7 µM; with EC9706 [1], 17.1 µM.
`O=C1CSC(c2ccc([N+](=O)[O-])cc2)c2cc3c(cc2N1)OCO3` (stereo not given): the IC50 with ECa-109 cell line amounted to 42.3 µM; with EC9706 [1] it was 24.9 µM.
For `Cc1ccc(C2SC(C)C(=O)Nc3cc4c(cc32)OCO4)cc1` (stereo not given), in that order: above 200 µM and above 200 µM.
For `O=C1CSC(c2ccc(Cl)cc2)c2cc3c(cc2N1)OCO3` (stereo not given), in that order: 36.2 µM and 34.4 µM.
For `O=c1[nH]cc(F)c(=O)[nH]1` [FLUOROURACIL], in that order: 30.2 µM and 23.3 µM.
